Experimental data taken from ChEMBL document CHEMBL1201862, “PubChem BioAssay data set” (2004).
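Briefly, cells in 96-well plates were exposed to five compound concentrations for 48 h, and endpoints were estimated by linear interpolation. The concentration for 50% growth inhibition is given as GI50.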 Active and inactive are the calls of the source. Rule as the data show it: active = GI50 up to about 1.1 µM and inactive = higher.

What was measured:
Experiment in all cases: NCI tumour cell line growth inhibition, 48 h
COLO 205 = system: COLO 205
KM12 = system: KM12
OVCAR-4 = system: OVCAR-4
SF-539 = system: SF-539
SNB-19 = system: SNB-19
SW-620 = system: SW-620
OVCAR-5 = system: OVCAR-5
TK-10 = system: TK-10
NCI-H522 = system: NCI-H522
786-0 = system: 786-0
HT-29 = system: HT-29
U-251 = system: U-251
A498 = system: A498
OVCAR-8 = system: OVCAR-8
SK-OV-3 = system: SK-OV-3
HL-60 = system: HL-60
SNB-75 = system: SNB-75
SR = system: SR

Measured: GI50

CCCCN(CCCC)CCCCNc1c(C)cnc2cc(Cl)ccc12
inactive: COLO 205 23.3 µM | KM12 36.6 µM | OVCAR-4 49.2 µM | SF-539 13.4 µM | SNB-19 52.5 µM | SW-620 20.9 µM | OVCAR-5 2.79 µM | TK-10 34.4 µM | NCI-H522 15.2 µM | 786-0 14 µM | HT-29 14.9 µM | U-251 28.6 µM | A498 23.6 µM | OVCAR-8 49.4 µM

COc1ccc(/C=C/c2onc3c(=O)n(C)nc(-c4ccccc4)c23)cc1
inactive: COLO 205 > 100 µM | SK-OV-3 > 100 µM | HL-60 > 100 µM | SF-539 48.9 µM | SNB-19 > 100 µM | SW-620 > 100 µM | TK-10 > 100 µM | NCI-H522 77.6 µM | 786-0 > 100 µM | HT-29 45 µM | U-251 > 100 µM | OVCAR-8 > 100 µM

COC(=O)c1cc(O)ccc1O [METHYL 2,5-DIHYDROXYBENZOATE]
inactive: COLO 205 > 100 µM | SK-OV-3 > 100 µM | KM12 > 100 µM | OVCAR-4 > 100 µM | HL-60 > 100 µM | SF-539 > 100 µM | SNB-19 > 100 µM | SW-620 > 100 µM | OVCAR-5 > 100 µM | TK-10 > 100 µM | NCI-H522 93.1 µM | 786-0 > 100 µM | HT-29 > 100 µM | U-251 > 100 µM | SNB-75 > 100 µM | OVCAR-8 > 100 µM

O=C1/C(=C/c2ccc(C(=O)O)cc2)CNC/C1=C\c1ccc(C(=O)O)cc1
inactive: COLO 205 > 100 µM | SK-OV-3 > 100 µM | SR > 100 µM | KM12 > 100 µM | OVCAR-4 > 100 µM | HL-60 > 100 µM | SF-539 > 100 µM | OVCAR-5 > 100 µM | TK-10 > 100 µM | 786-0 > 100 µM | HT-29 > 100 µM | U-251 > 100 µM | A498 > 100 µM | SNB-75 > 100 µM | OVCAR-8 > 100 µM

O=C(OCCCl)C1OC(n2cc(F)c(=O)[nH]c2=O)CC1O (stereo unspecified)
inactive: COLO 205 > 100 µM | SK-OV-3 > 100 µM | KM12 > 100 µM | OVCAR-4 > 100 µM | HL-60 > 100 µM | SF-539 > 100 µM | SNB-19 > 100 µM | SW-620 > 100 µM | OVCAR-5 > 100 µM | TK-10 > 100 µM | NCI-H522 > 100 µM | 786-0 > 100 µM | HT-29 > 100 µM | U-251 > 100 µM | A498 > 100 µM | SNB-75 > 100 µM | OVCAR-8 > 100 µM

O=C1c2ccccc2C2(O)Nc3cc(O)ccc3C12O (stereo unspecified)
inactive: COLO 205 > 100 µM | SK-OV-3 > 100 µM | KM12 > 100 µM | OVCAR-4 > 100 µM | HL-60 > 100 µM | SF-539 > 100 µM | SNB-19 > 100 µM | SW-620 > 100 µM | OVCAR-5 > 100 µM | TK-10 > 100 µM | NCI-H522 > 100 µM | 786-0 > 100 µM | HT-29 > 100 µM | U-251 > 100 µM | A498 > 100 µM | SNB-75 > 100 µM | OVCAR-8 > 100 µM

CCCCCCCCCCCC[N+]12CC[N+](CCN)(CC1)CC2
inactive: COLO 205 39.3 µM | SK-OV-3 > 100 µM | SR 26.9 µM | KM12 23.7 µM | OVCAR-4 > 100 µM | HL-60 27.7 µM | SF-539 89.7 µM | SNB-19 20.8 µM | SW-620 > 100 µM | OVCAR-5 17.2 µM | TK-10 17.1 µM | NCI-H522 86.5 µM | 786-0 > 100 µM | HT-29 67.8 µM | U-251 34.5 µM | SNB-75 28.2 µM | OVCAR-8 > 100 µM

Cc1ccc(C2CC(c3ccco3)=NN2c2ccccc2)o1 (stereo unspecified)
inactive: COLO 205 > 100 µM | SR > 100 µM | KM12 > 100 µM | OVCAR-4 > 100 µM | HL-60 > 100 µM | SF-539 > 100 µM | SNB-19 > 100 µM | SW-620 > 100 µM | OVCAR-5 > 100 µM | TK-10 > 100 µM | NCI-H522 > 100 µM | 786-0 > 100 µM | HT-29 > 100 µM | U-251 > 100 µM | SNB-75 > 100 µM | OVCAR-8 > 100 µM

COC1=CC(=O)C2C(C1=O)C(c1ccc(OC)c(OC)c1)[C@H]2C (stereo partly specified)
inactive: COLO 205 19.1 µM | SK-OV-3 > 100 µM | KM12 > 100 µM | OVCAR-4 16.6 µM | HL-60 20.5 µM | SF-539 > 100 µM | SNB-19 > 100 µM | SW-620 20 µM | OVCAR-5 > 100 µM | TK-10 19 µM | NCI-H522 12.8 µM | 786-0 18 µM | HT-29 31.8 µM | U-251 > 100 µM | A498 > 100 µM | SNB-75 > 100 µM | OVCAR-8 20.6 µM
